Laboratory results: ChEMBL document CHEMBL1147322, “X-ray crystal structure of acrovestone, a cytotoxic principle from Acronychia pedunculata” (1989)
≈ marks a conversion by molar mass, not a printed value.

How the values were obtained:
Format in all cases: functional
L1210 = assay: Cytotoxicity against mouse L1210 cells; conditions: read-out: ED50 (the source's name)
KB = assay: Cytotoxicity against human KB cells at 0.5 ug/ml
P388 = assay: Cytotoxicity against mouse P388 cells; conditions: read-out: ED50 (the source's name)
A549 = assay: Cytotoxicity against human A549 cells; conditions: read-out: ED50 (the source's name)

## COc1c(CC=C(C)C)c(O)c([C@H](CC(C)C)c2c(O)c(CC=C(C)C)c(O)c(C(C)=O)c2O)c(O)c1C(C)=O [ACROVESTONE]
L1210
  EC50: 2.95 µg/mL (≈ 5.32 µM)
KB
  inhibition at 0.5 µg/mL: 100%
P388
  EC50: 3.28 µg/mL (≈ 5.91 µM)
A549
  EC50: 0.98 µg/mL (≈ 1.77 µM)
